{
  "source": "patent US20230236170A1",
  "about": "“REACTIVE AFFINITY PROBE-I[…] PLATFORM” (Jnana Therapeutics Inc., priority 2019, published 2023)",
  "key": {"[1]": {"target": "T1, creatine transporter SLC6A8 (Homo sapiens, UniProt P48029)", "T1 construct": "host or cells: 'Cells', not specified", "T1 sequence (P48029 1-635)": "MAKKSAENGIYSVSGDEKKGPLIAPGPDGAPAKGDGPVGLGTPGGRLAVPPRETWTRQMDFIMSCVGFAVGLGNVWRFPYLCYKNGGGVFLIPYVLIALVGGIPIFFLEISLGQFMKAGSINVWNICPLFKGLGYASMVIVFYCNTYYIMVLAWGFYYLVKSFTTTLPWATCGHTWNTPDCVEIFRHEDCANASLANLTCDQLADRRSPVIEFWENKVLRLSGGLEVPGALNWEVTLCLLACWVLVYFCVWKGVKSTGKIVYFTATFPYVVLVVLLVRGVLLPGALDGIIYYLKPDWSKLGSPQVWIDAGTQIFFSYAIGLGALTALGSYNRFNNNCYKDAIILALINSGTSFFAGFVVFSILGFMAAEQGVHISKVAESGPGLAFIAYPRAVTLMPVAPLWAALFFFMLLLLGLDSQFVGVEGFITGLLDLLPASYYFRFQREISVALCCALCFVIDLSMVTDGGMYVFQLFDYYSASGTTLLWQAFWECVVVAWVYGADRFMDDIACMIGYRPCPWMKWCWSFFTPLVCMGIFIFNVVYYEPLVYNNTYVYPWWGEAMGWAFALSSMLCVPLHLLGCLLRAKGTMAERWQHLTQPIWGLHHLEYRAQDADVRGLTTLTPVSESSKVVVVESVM", "assay": "creatine uptake assay after photo-crosslinking of reactive affinity probe", "type": "cell-based", "settings": "100 μM JN-1724 with or without 1 mM β-GPA, 30 minutes, 6 minutes 365 nm; FIG. 3", "procedure": "Cells were dosed for 30 minutes with 100 μM JN-1724 with or without 1 mM β-GPA and then irradiated for 6 minutes with 365 nm light. Cells were washed and the residual transport activity of SLC6A8 was measured via a creatine uptake assay.\nRAPID identifies orthosteric and allosteric ligands as starting points or probes for target occupancy. The extent of covalent modification of the creatine transporter by a subset of the RAP library is highly reproducible (FIG. 2A). Screen of 2000 RAPs against the creatine transporter SLC6A8±the substrate analog guanidinoproprionic acid (GPA) identifies substrate-sensitive binder (FIG. 2B). Dots that fall off-diagonal are either substrate-competitive or substrate-cooperative. Two RAPs identified from the screen show dose-dependent inhibition or enhancement of covalent modification of the target as a function of the concentration of GPA (FIG. 2C).\nA 30 minute 100 μM dose of JN-1724 followed by 6 minutes of cross-linking at 365 nm is enough to inhibit SLC6A8 transport of creatine to 5.7% of normal transport. […] Cells were lysed; biotin was clicked on; and biotinylated proteins were affinity-purified with streptavidin, digested with trypsin, and identified by tandem mass spectrometry with TMT quantification. […]"}, "SLC6A8": {"target": "T2, SLC6A8 (Homo sapiens, UniProt P48029)", "T2 construct": "host or cells: 'Cells', not specified", "T2 sequence (P48029 1-635)": "T1 sequence (P48029 1-635)", "assay": "target engagement by mass spectrometry of the adductome (streptavidin enrichment, TMT quantification)", "type": "binding", "settings": "co-dosing 1 mM β-GPA with 20 μM JN-1724, 30 minutes, 6 minutes 365 nm", "procedure": "Cells were dosed for 30 minutes with 20 μM JN-1724 with or without 1 mM β-GPA and then irradiated for 6 minutes with 365 nm light. Cells were lysed; biotin was clicked on; and biotinylated proteins were affinity-purified with streptavidin, digested with trypsin, and identified by tandem mass spectrometry with TMT quantification. SLC6A8 (dot pointed at with arrow) was one of the proteins identified and co-dosing with 1 mM β-GPA reduced the level of enrichment by 80%.\nA 30 minute 100 μM dose of JN-1724 followed by 6 minutes of cross-linking at 365 nm is enough to inhibit SLC6A8 transport of creatine to 5.7% of normal transport. To confirm target engagement by unbiased mass spectrometry of the adductome, Cells were dosed for 30 minutes with 20 μM JN-1724 with or without 1 mM β-GPA and then irradiated for 6 minutes with 365 nm light. Cells were lysed; biotin was clicked on; and biotinylated proteins were affinity-purified with streptavidin, digested with trypsin, and identified by tandem mass spectrometry with TMT quantification. SLC6A8 (dot pointed at with arrow) was one of the proteins identified and co-dosing with 1 mM β-GPA reduced the level of enrichment by 80% (FIG. 4)."}},
  "data": [
    {"smiles": "N=C(N)NCCC(=O)O", "note": "[β-GPA, β-guanidinoproprionic acid]", "values": [
      {"measurement": "effect on residual transport activity of SLC6A8", "setting": "[1]", "value": "protection"},
      {"measurement": "reduction of the level of enrichment of SLC6A8", "setting": "SLC6A8", "value": 80, "unit": "%"}
    ]}
  ]
}
